Assay [1] can be described thus: Mean Arterial Pressure in anesthetized dogs. In kind it is in vivo. An excerpt:
The compounds of Formula I disclosed herein are also useful as blood pressure lowering agents and thus useful for the treating hypertension. Arterial hypertension has been identified as a strong causal factor in cardiovascular disease. An embodiment of the invention encompasses a method for treating or preventing cardiovascular disease comprising administering to a patient in need thereof a compound of Formula I, either as a single agent or in combination with other standard of care agents. It is postulated that compounds of the invention lower blood pressure by interfering with binding of tau and other microtubule associated proteins (MAP) to microtubules. Inhibiting the depolymerization of tubulin is the proposed cause of vasorelaxation leading to blood pressure lowering. […] Example 4 disclosed herein lowered Mean Arterial Pressure by 25% when it was dosed at 5 mg/kg cumulatively over the course of 90 minutes in anesthetized dogs. Example 9 disclosed herein lowered Mean Arterial Pressure by 89% when it was dosed at 10 mg/kg cumulatively over the course of 90 minutes in anesthetized dogs.

In a further assay the target is T1, MARK3 (Homo sapiens, UniProt P27448).
T1 construct: purchased University of Dundee
T1 sequence (P27448 whole entry, species assumed): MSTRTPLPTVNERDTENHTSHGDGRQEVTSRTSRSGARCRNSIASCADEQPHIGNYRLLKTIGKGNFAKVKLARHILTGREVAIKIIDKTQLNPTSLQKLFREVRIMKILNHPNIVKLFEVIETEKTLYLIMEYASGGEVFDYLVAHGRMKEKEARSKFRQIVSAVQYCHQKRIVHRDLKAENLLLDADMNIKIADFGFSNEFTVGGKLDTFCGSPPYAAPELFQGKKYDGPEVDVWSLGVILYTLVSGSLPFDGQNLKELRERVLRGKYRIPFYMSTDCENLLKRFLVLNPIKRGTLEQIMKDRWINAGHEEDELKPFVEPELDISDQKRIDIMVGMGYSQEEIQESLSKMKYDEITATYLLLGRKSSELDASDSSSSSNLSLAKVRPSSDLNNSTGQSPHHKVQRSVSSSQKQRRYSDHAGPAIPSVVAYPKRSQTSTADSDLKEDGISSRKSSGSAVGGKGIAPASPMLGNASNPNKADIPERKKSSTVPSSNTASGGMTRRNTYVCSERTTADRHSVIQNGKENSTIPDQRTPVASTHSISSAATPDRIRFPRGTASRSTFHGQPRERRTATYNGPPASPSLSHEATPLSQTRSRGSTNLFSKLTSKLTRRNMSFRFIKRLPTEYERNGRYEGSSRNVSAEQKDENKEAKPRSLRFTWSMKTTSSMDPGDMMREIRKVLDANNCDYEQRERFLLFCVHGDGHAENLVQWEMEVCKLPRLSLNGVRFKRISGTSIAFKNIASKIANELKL
In words: MARK 3 Assay (HTRF, Cdc25C biotinylated peptide substrate). In kind it is biochemical. Particulars: 10 μM ATP, 10 nM recombinant MARK3 enzyme. On the procedure: MARK3 activity was assayed in vitro using a Cdc25C biotinylated peptide substrate (Cell Signalling Technologies). The phosphopeptide product was quantitated using a Homogenous Time-Resolved Fluorescence (HTRF) assay system (Park et al., 1999, Anal. Biochem. 269:94-104). The reaction mixture contained 50 mM HEPES/Tris-HCl, pH 7.4; 10 mM NaCl, 5 mM MgCl2, 0.2 mM NaVO4, 5 mM β-glycerol phosphate, 0.1% Tween-20, 2 mM dithiothreitol, 0.1% BSA, 10 μM ATP, 1 μM peptide substrate, and 10 nM recombinant MARK3 enzyme (University of Dundee) in a final volume of 12 μL. The buffer additionally contained protease inhibitor cocktail (Roche EDTA-free, 1 tab per 50 ml). The kinase reaction was incubated for 2 hours at 25° C., and then terminated with 3 μl Stop/Detection Buffer (50 mM HEPES, pH 7.0, 16.6 mM EDTA, 0.5M KF, 0.1% Tween-20, 0.1% BSA, 2 μg/ml SLX^ent 665 (CISBIO), and 2 μg/mL Eu^3+ cryptate label antibody (CISBIO)). The reaction was allowed to equilibrate overnight at 0° C., and relative fluorescent units were read on an HTRF enabled plate reader (e.g. TECAN GENios Pro).
Inhibitor compounds were assayed in the reaction described above to determine compound IC50s. Aliquots of compound dissolved in DMSO were added to the reaction wells in a third-log dilution series covering a range of 1 nM to 10 μM. Relative phospho substrate formation, read as HTRF fluorescence units, was measured over the range of compound concentrations and a titration curve generated.
Background: In TR-FRET formats the signal depends on donor and acceptor labels being close together.

As a reminder, the IC50 is the concentration needed to halve the response being measured. As for `CCc1sc(C(=O)N[C@@H]2[C@@H](N)CCCC2(F)F)cc1-c1cnn2cc(Cl)cnc12` [Example 4, N-[(1R,6S)-6-Amino-2,2-difluorocyclohexyl]-4-(6-chloropyrazolo[1,5-a]pyrimidin-3-yl)-5-ethylthiophene-2-carboxamide], the “lowered Mean Arterial Pressure” value in assay [1] (5 mg/kg cumulatively over the course of 90 minutes) is recorded as 25%. Moreover, the IC50 on MARK3 came to 27 nM.

In the case of `CCc1sc(C(=O)N[C@@H]2[C@@H](N)CCCC2(F)F)cc1-c1cnn2cc(C(F)(F)F)cnc12` [Example 6, N-[(1R,6S)-6-Amino-2,2-difluorocyclohexyl]-5-ethyl-4-[6-(trifluoromethyl)pyrazolo[1,5-a]pyrimindin-3-yl]thiophene-2-carboxamide], the IC50 at MARK3 is 73 nM.

For `Cc1sc(C(=O)N[C@@H]2[C@H](N)CCCC2(F)F)cc1-c1cnn2cc(OC(F)F)cnc12` [Example 9, N-[(1R,6R)-6-Amino-2,2-difluorocyclohexyl]-4-[6-(difluoromethoxy)pyrazolo[1,5-a]pyrimidin-3-yl]-5-methylthiophene-2-carboxamide], the “lowered Mean Arterial Pressure” value in assay [1] (10 mg/kg cumulatively over the course of 90 minutes) was found to be 89%. For the same compound, the IC50 on MARK3 was 3 nM.

As for `Cc1sc(C(=O)N[C@@H]2[C@@H](N)CCCC2(F)F)cc1-c1cnn2cc(OC(F)F)cnc12` [Example 10, N-[(1R,6S)-6-amino-2,2-difluorocyclohexyl]-4-[6-(difluoromethoxy)pyrazolo[1,5-a]pyrimidin-3-yl]-5-methylthiophene-2-carboxamide], the IC50 at MARK3 worked out at 5 nM.

Consider `CCOc1cnc2c(-c3cc(C(=O)N[C@@H]4[C@H](N)CCCC4(F)F)sc3CC)cnn2c1` [Example 15, N-[(1R,6R)-6-amino-2,2-difluorocyclohexyl]-4-(6-ethoxypyrazolo[1,5-a]pyrimidin-3-yl)-5-ethylthiophene-2-carboxamide], for which, at MARK3, the IC50 turned out to be 2 nM.

On to `Cc1sc(C(=O)N[C@@H]2CCCC[C@@H]2N)cc1-c1cnn2cc(-c3cnn(C)c3)cnc12` [reference compound], for which the IC50 at MARK3 was found to be 1 nM.

Values taken from patent publication US8946237B2, “Pyrazolo[1,5-A]pyrimidines as mark inhibitors” (Merck Sharp & Dohme Corp., priority 2010, dated 2015).
